Laboratory results reported in publication PMC7100886 (Cell Cycle, 2020).
Ends that are not written are not given here. * marks the point of attachment. Biotin = O=C1N[C@H]2[C@H](CS[C@H]2CCCCC(=O)*)N1

What was measured:
[1] = system: BT-549 cells; conditions: RAD51 inhibitor; cited from earlier work
[2] = molecular target: c-Jun (Homo sapiens, UniProt P05412); conditions: cited from earlier work
[3] = molecular target: His-tagged recombinant c-Jun (UniProt P05412 1-331); assay: BLI
Chain of His-tagged recombinant c-Jun (P05412 whole entry): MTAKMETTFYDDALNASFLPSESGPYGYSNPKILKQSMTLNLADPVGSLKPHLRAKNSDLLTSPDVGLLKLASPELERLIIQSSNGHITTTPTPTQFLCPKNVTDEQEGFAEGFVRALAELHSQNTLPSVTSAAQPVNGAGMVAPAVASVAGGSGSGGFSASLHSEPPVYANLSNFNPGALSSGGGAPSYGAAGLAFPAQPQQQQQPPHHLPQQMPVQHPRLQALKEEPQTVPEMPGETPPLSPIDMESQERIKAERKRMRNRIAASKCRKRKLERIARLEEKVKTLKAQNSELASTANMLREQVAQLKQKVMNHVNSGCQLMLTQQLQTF

Chain of c-Jun (P05412 whole entry): as above

Q: With `O=C1C(Cl)=C(N2CCOCC2)C(=O)N1c1ccc(Cl)c(Cl)c1` [RI-1] as the molecule, how does the “effect on efficiency of double stranded DNA break repair” value [1] read?
A: The value was “little to no effect”.

Q: For `CC[C@]1(O)C[C@@H]2CN(CCc3c([nH]c4ccccc34)[C@@](C(=O)OC)(c3cc4c(cc3OC)N(C)[C@H]3[C@@](O)(C(=O)OC)[C@H](OC(C)=O)[C@]5(CC)C=CCN6CC[C@]43[C@@H]65)C2)C1` [Vinblastine], which p21 [2] is on record?
A: Its p21 is “decrease in p21”.

Q: And the “phosphorylated c-Jun” value [2]?
A: The value was “increasing phosphorylated c-Jun”.

B1: CAPER Peptide HCC1.3 (peptide)
peptide: Biotin-YGRKKRRQRRRRLQLMARLAEGTGLQIPPAAQQALQMSGSLAFGAVADLQTRLSQQ
Q: For B1, which Kd [3] is on record?
A: Its Kd is 8.89 nM.

B2: CAPER Peptide HCC1.4 (peptide)
peptide: Biotin-YGRKKRRQRRRRLQLMARLAEGTGLQIPPAAQQALQMSGSLAFGAVAEFSFVIDLQ
Q: For B2, which Kd [3] is on record?
A: Its Kd is 25.6 nM.
